Measured values as given in ChEMBL document CHEMBL1137690, “Novel amide derivatives as inhibitors of histone deacetylase: design, synthesis and SAR” (Eur J Med Chem, 2009).

Experiments:
HeLa = assay: Antiproliferative activity against human HeLa cells after 4 hrs by WST-1 assay; type: functional, cell-based
Histone deacetylase = assay: Inhibition of HDAC from human HeLa cells; type: cell-based
[1] = molecular target: Histone deacetylase (Homo sapiens) (UniProt Q13547+O15379+Q9UBN7+Q92769+Q9UQL6+Q8WUI4+Q9BY41+Q96DB2+P56524+Q9UKV0+Q969S8); assay: Inhibition of HDAC from human HeLa cells at 500 nM
P388 [2] = assay: Antitumor activity in mouse P388 cells xenografted B6D2F1 mouse assessed as increase in life span at 60 mg/kg/day, ip administered 3 to 7 days postxenografting; type: functional; conditions: route intraperitoneal
P388 [3] = assay: Antitumor activity in mouse P388 cells xenografted B6D2F1 mouse assessed as increase in life span at 100 mg/kg/day, ip administered 3 to 7 days postxenografting; type: functional; conditions: route intraperitoneal
P388 [4] = assay: Antitumor activity in mouse P388 cells xenografted B6D2F1 mouse assessed as increase in life span at 20 mg/kg/day, ip administered 3 to 7 days postxenografting; type: functional; conditions: route intraperitoneal
Histone deacetylase 4 = Histone deacetylase 4 (Homo sapiens, UniProt P56524); assay: Inhibition of human recombinant HDAC4
Histone deacetylase 9 = Histone deacetylase 9 (Homo sapiens, UniProt Q9UKV0); assay: Inhibition of human recombinant HDAC9
Histone deacetylase 1 = Histone deacetylase 1 (Homo sapiens, UniProt Q13547); assay: Inhibition of human recombinant HDAC1
Histone deacetylase 3 = Histone deacetylase 3 (Homo sapiens, UniProt O15379); assay: Inhibition of human recombinant HDAC3
Histone deacetylase 8 = molecular target: T1, Histone deacetylase 8 (Homo sapiens, UniProt Q9BY41); assay: Inhibition of human recombinant HDAC8
T1 sequence (Q9BY41 whole entry): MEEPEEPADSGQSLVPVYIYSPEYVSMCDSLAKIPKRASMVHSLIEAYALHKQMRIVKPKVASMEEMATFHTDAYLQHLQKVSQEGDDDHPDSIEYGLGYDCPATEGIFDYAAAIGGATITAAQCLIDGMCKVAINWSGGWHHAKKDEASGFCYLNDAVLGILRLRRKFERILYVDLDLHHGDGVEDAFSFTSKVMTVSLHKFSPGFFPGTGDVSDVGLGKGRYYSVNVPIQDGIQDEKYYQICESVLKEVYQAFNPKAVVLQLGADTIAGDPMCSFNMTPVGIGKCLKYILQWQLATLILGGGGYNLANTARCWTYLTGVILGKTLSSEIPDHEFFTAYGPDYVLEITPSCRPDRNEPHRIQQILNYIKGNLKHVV

[5] = molecular target: T2, Protein deacetylase HDAC6 (Homo sapiens, UniProt Q9UBN7); assay: Inhibition of human recombinant HDAC6
T2 sequence (Q9UBN7 whole entry): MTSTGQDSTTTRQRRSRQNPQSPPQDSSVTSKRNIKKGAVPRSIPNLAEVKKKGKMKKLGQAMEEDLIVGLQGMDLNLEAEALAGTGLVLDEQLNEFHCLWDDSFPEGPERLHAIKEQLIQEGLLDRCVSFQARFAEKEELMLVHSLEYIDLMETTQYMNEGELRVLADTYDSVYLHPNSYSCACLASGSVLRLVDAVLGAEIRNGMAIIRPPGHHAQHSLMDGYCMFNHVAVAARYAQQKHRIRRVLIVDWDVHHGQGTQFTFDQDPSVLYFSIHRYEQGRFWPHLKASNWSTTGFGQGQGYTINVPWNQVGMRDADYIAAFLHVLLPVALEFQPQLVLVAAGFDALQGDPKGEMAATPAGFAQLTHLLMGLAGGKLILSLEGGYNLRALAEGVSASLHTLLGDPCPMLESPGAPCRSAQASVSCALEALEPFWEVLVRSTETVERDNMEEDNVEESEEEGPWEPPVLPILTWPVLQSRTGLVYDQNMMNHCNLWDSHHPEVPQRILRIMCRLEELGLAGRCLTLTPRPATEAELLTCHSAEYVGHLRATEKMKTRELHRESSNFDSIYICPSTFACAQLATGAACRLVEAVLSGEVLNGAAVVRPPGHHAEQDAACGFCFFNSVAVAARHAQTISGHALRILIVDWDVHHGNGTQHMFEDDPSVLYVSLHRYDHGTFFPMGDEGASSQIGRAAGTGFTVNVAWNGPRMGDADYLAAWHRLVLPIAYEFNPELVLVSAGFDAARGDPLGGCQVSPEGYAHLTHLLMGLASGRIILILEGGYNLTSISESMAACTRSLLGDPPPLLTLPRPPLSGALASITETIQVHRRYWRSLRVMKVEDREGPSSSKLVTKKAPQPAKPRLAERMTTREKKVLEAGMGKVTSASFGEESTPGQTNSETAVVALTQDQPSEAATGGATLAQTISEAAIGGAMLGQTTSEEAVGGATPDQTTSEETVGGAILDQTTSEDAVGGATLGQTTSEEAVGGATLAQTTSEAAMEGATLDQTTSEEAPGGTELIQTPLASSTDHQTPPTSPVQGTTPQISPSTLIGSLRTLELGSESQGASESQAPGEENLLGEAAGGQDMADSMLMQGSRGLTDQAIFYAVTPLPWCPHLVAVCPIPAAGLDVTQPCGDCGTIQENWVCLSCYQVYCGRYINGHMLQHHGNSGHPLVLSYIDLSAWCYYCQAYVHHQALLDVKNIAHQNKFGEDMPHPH

Histone deacetylase 2 = Histone deacetylase 2 (Homo sapiens, UniProt Q92769); assay: Inhibition of human recombinant HDAC2
Histone deacetylase 2, sequence (Q92769 whole entry): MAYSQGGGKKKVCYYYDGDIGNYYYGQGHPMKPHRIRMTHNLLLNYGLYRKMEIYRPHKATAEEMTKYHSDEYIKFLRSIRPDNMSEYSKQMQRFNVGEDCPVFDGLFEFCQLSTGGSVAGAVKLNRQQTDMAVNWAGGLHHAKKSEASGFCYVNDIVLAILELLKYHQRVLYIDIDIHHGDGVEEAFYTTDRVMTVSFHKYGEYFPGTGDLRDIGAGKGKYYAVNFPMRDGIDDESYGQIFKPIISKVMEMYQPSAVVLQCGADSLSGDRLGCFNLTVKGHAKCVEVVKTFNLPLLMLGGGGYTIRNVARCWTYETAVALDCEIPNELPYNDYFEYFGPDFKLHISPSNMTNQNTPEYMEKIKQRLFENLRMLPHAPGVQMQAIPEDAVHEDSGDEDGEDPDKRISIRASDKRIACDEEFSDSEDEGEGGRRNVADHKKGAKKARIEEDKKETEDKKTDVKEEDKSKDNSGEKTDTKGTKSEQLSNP

Histone deacetylase 9, sequence (Q9UKV0 whole entry): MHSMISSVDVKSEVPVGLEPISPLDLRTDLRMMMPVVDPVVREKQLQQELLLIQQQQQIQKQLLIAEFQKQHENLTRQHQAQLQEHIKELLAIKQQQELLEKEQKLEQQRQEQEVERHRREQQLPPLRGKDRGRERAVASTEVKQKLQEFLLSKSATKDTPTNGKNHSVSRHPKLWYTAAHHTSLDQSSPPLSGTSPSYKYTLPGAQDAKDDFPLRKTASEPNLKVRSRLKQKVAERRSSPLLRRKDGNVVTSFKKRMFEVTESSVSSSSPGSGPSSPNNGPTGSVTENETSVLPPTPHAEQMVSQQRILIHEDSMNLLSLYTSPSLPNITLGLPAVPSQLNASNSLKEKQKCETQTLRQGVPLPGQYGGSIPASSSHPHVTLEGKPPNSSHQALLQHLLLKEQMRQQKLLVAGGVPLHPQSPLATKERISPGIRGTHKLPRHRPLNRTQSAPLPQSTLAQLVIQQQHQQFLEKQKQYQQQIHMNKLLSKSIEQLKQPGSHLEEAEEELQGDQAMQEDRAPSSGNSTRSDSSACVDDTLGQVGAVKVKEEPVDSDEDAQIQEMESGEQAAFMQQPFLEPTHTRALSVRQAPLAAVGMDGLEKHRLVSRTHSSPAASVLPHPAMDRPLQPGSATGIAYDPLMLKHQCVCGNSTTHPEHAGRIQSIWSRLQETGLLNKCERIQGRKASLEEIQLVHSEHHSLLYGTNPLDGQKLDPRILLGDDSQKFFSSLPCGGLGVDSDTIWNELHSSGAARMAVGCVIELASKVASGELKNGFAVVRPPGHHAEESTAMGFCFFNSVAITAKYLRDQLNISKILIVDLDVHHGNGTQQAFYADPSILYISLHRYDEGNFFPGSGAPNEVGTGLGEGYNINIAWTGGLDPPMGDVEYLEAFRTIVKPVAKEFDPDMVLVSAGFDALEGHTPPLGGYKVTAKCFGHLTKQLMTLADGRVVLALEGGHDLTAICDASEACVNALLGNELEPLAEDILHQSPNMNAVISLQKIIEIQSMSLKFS
Histone deacetylase 3, sequence (O15379 whole entry): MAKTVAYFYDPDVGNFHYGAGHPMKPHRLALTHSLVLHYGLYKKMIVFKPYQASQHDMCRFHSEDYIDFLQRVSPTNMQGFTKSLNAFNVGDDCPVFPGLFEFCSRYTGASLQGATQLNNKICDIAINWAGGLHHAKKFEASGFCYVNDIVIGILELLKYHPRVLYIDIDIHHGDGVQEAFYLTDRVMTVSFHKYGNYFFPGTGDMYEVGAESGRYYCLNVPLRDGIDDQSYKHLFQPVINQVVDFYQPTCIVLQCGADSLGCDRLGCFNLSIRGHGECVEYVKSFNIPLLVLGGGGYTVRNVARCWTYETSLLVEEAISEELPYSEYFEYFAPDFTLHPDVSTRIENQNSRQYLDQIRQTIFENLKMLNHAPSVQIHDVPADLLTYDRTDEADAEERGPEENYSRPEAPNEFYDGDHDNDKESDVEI
Histone deacetylase 1, sequence (Q13547 whole entry): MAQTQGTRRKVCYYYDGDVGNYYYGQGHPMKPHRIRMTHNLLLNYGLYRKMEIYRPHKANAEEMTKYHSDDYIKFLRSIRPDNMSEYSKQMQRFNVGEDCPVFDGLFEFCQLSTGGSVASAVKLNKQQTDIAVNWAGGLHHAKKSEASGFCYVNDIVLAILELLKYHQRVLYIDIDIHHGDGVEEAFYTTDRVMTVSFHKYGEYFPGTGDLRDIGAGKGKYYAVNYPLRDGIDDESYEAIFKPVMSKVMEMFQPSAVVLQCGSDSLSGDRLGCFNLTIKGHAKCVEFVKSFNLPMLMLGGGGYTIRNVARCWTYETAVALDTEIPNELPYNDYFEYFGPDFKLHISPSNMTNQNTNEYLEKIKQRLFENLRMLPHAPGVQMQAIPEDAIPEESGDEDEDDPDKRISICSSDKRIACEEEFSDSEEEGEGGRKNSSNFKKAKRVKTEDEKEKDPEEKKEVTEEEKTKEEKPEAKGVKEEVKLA
Histone deacetylase 4, sequence (P56524 whole entry): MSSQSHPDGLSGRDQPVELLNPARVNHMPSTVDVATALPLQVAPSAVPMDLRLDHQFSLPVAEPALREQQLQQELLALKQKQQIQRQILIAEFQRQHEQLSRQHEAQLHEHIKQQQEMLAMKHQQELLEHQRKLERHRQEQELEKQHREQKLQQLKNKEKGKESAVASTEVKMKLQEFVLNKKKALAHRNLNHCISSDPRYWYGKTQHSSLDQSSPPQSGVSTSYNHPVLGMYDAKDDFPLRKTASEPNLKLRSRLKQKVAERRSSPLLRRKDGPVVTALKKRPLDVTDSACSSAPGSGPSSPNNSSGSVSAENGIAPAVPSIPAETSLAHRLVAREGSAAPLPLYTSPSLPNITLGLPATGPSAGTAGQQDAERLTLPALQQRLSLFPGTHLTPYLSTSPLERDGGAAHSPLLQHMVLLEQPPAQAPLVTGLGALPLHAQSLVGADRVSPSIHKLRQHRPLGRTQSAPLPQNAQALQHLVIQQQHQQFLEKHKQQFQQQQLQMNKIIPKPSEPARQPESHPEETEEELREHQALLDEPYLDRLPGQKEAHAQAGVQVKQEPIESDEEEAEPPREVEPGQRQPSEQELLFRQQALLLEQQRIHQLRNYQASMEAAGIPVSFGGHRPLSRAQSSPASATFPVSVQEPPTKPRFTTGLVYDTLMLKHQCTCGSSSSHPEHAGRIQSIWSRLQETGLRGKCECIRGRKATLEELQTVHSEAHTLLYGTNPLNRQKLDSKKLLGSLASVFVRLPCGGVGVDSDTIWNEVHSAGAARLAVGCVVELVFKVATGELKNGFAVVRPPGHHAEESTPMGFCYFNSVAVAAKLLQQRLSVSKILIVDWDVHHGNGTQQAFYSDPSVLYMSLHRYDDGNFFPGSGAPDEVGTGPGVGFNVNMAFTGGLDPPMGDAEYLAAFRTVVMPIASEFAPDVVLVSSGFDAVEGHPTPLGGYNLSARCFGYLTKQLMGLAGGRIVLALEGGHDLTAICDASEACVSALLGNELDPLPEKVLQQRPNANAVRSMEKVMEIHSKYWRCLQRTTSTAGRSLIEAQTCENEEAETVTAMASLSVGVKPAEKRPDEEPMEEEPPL

Structure (SMILES) | IC50 (Histone deacetylase) | IC50 (HeLa; 48 h) | inhibition [1] | also measured
O=C(C#Cc1ccccc1)NCCCCCC(=O)NO | 0.062 µM |  |  | IC50 (HeLa; 4 h): 10.6 µM
O=C(CCCCCCC(=O)NCCc1ccccc1)NO |  | 13.3 µM | 46% | 
O=C(/C=C/C=C/c1ccccc1)NCCCCCC(=O)NO | 0.029 µM | 5.1 µM |  | 
O=C(CCCCCCC(=O)Nc1ccccc1)NO [VORINOSTAT] |  |  |  | Activity (P388 [2]): 0%; Activity (P388 [3]): 14%; Activity (P388 [4]): 11%
O=C(CCCCCNC(=O)CCCc1ccccc1)NO |  | 52.7 µM | 19% | 
CN(C)c1ccc(CC(=O)NCCCCCC(=O)NO)cc1 |  | 52.7 µM | 9% | 
O=C(CCCCCCCNC(=O)c1ccc2ccccc2c1)NO | 0.028 µM | 3.6 µM |  | 
O=C(CCCCCCNC(=O)c1ccc2ccccc2c1)NO |  | 0.4 µM |  | 
O=C(/C=C/c1ccccc1)NCCCCCC(=O)NO | 0.032 µM | 5.5 µM |  | 
O=C(/C=C/c1cccnc1)NCCCCCC(=O)NO.O=C(O)C(=O)O | 0.141 µM | 28.4 µM |  | 
O=C(CCCCCNC(=O)CCCCc1ccccc1)NO |  | 70.8 µM | 51% | 
O=C(CCCCCNC(=O)CC/C=C/c1ccccc1)NO | 0.625 µM | 20.6 µM |  | 
O=C(/C=C/c1cccc2cccnc12)NCCCCCC(=O)NO | 0.025 µM | 20.9 µM |  | 
O=C(CCCCNC(=O)c1ccc2ccccc2c1)NO |  | 24.7 µM | 42% | 
O=C(/C=C/c1ccc2cccnc2c1)NCCCCCC(=O)NO |  | 12.3 µM |  | Activity (P388 [2]): 111%; Activity (P388 [4]): 0%
O=C(/C=C/c1ccc(Cl)cc1F)NCCCCCC(=O)NO |  | 6.3 µM |  | Activity (P388 [2]): 22%; Activity (P388 [4]): 0%
O=C(/C=C/c1ccc2ccccc2c1)NCCCCCC(=O)NO | 0.007 µM | 18.3 µM |  | 
O=C(C=C1c2ccccc2-c2ccccc21)NCCCCCC(=O)NO | 0.005 µM | 1.7 µM |  | IC50 (Histone deacetylase 4): 0.0012 µM; Activity (P388 [2]): 78%; IC50 (Histone deacetylase 9): 0.0023 µM; IC50 (Histone deacetylase 1): 0.0016 µM; IC50 (Histone deacetylase 3): 0.0028 µM; IC50 (Histone deacetylase 8): 0.779 µM; IC50 [5]: 0.002 µM; IC50 (Histone deacetylase 2): 0.0008 µM; Activity (P388 [4]): 11%
O=C(CCCCCNC(=O)C/C=C/c1ccccc1)NO |  | 24 µM | 53% | 

More lines, in order of falling IC50 (HeLa; 48 h), values ahead:

IC50 (Histone deacetylase) | IC50 (HeLa; 48 h) | inhibition [1] | Structure (SMILES) | also measured
22.85 µM | 114 µM |  | CC(/C=C/C(=O)NCCCC(=O)NO)=C\c1ccccc1 | 
 | 74.8 µM | 27% | O=C(CCCCCNC(=O)CCc1ccccc1)NO | 
0.101 µM | 46.4 µM |  | O=C(/C=C/c1ccncc1)NCCCCCC(=O)NO.O=C(O)C(=O)O | 
 | 44.2 µM | 39% | O=C(CCCCCCC(=O)NCc1ccccc1)NO | 
 | 35.9 µM | 51% | O=C(CCCCCNC(=O)Cc1ccc(-c2ccccc2)cc1)NO | 
0.338 µM | 9.9 µM |  | O=C(C=C1c2ccccc2CCc2ccccc21)NCCCCCC(=O)NO | 
0.046 µM | 9.5 µM |  | O=C(/C=C/c1ccccn1)NCCCCCC(=O)NO.O=C(O)C(=O)O | 
0.201 µM | 8.5 µM |  | O=C(C=C(c1ccccc1)c1ccccc1)NCCCCCC(=O)NO | 
 | 4.8 µM |  | CC(/C=C/c1ccccc1)=C\C(=O)NCCCCCC(=O)NO | 
 | 4.1 µM |  | CN(C)c1ccc(C(=O)NCCCCCC(=O)NO)cc1 | 
0.038 µM | 2.6 µM |  | O=C(CCCCCNC(=O)c1ccc(-c2ccccc2)cc1)NO | 
